Measurements published in PMC11470999, “Penfluridol inhibits melanoma growth and metastasis through enhancing von Hippel‒Lindau tumor suppressor‐mediated cancerous inhibitor of protein phosphatase 2A (CIP2A) degradation” (MedComm, 2024).
pKd: −log10 of the molar value.

How the values were obtained:
CIP2A = biological target: T1, CIP2A (Homo sapiens, UniProt Q8TCG1); experiment: DARTS (proteinase K, immunoblot) and cellular thermal shift assay; format: cell-based; details: A375 cells treated with PF (DARTS); melanoma cells (CETSA)
T1 construct: endogenous full-length protein in A375 human melanoma cells / lysate; 905 residues

Hu‐CIP2A (1‐560) = biological target: T2, Hu‐CIP2A (1‐560) (Homo sapiens, UniProt Q8TCG1); experiment: isothermal titration calorimetry, one-site model; format: binding; details: read-out: dissociation constant
T2 construct: recombinant purified N-terminal armadillo repeat domain, residues 1-560 of 905
Description: isothermal titration calorimetry, one-site model on Hu‐CIP2A (1‐560) | A strong binding affinity between PF and CIP2A protein was observed, with a dissociation constant

pKd (Hu‐CIP2A (1‐560)): 5.13
SMILES: OC1(c2ccc(Cl)c(C(F)(F)F)c2)CCN(CCCC(c2ccc(F)cc2)c2ccc(F)cc2)CC1 [PF, Penfluridol]
DARTS (proteinase K, immunoblot) and cellular thermal shift assay (CIP2A): PF protects CIP2A from proteinase K‐induced protein hydrolysis
